One assay has as its target T1, SIRT1 (Homo sapiens, UniProt Q96EB6).
T1 sequence (Q96EB6 1-747): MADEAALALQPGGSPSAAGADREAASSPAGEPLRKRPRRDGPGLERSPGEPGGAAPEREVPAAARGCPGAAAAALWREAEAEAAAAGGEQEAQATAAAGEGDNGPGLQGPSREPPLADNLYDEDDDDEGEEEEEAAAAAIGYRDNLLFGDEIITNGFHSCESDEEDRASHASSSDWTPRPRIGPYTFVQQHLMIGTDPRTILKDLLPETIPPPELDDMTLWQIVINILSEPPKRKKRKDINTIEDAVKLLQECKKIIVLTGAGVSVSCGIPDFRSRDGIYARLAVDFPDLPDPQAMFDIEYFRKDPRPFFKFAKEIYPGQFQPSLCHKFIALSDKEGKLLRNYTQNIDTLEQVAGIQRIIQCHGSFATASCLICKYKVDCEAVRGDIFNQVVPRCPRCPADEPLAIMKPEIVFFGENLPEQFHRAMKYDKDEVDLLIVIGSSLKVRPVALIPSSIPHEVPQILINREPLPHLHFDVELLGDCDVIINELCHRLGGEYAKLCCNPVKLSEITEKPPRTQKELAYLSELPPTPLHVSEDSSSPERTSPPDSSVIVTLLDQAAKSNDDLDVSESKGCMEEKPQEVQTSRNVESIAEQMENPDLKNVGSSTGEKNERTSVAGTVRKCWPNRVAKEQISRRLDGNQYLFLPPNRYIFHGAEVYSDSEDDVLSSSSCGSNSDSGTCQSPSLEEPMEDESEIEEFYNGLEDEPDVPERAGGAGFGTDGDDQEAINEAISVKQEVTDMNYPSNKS
Nature of the assay: Mass spectrometry based assay to identify modulators of SIRT1 activity (deacetylation of p53-based acetylated peptide substrate). It counts as biochemical. The note with it: SIRT1 activation; for Emax: 25 min, read-out: % FOLD ACT. (percent maximum fold activation). The method, boiled down:
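Deacetylation of a modified p53 acetyl-lysine peptide ([…], 5TMR-labelled, Nle for Met) by 10 nM N-His SIRT1 with 120 μM βNAD+, pH 8, 25 min, 25 °C. Substrate and product masses measured by MS after formic acid quench; nicotinamide defines maximal inhibition.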

A further assay has as its system TNF. Briefly: TNF IC50 (column of Table 1; method not shown). It counts as cell-based.

A value given as a limit tells only on which side of the number the result lay.

Consider 17 compounds from patent US9556201B2, “Bicyclic pyridines and analogs as sirtuin modulators” (GLAXOSMITHKLINE LLC, priority 2009, dated 2017).

As to `O=C(Nc1cccc(OC[C@@H](O)CO)n1)N1CCOc2ccc(-c3cccc(C(F)(F)F)c3)nc21` [Compound 571], at SIRT1, the Emax was more than 200% and the EC1.5 result is reported as “A (EC1.5<1.0 μM)”. The compound further gave an IC50 with TNF of less than 20 µM.

For `O=C(Nc1ccncc1)N1CCOc2ccc(-c3cccc(N4CCCC4)c3)nc21` [Compound 559], on SIRT1, the Emax was more than 200% and the EC1.5 result is on record as “A (EC1.5<1.0 μM)”. For the same compound, in the assay on TNF, the IC50 is less than 20 µM.

For `CN1CCN(C(=O)Nc2ccncc2)c2nc(-c3cccc(C(F)(F)F)c3)ccc21` [Compound 531], on SIRT1, the Emax is more than 200% and the EC1.5 entry is recorded as “A (EC1.5<1.0 μM)”. The IC50 with TNF was less than 20 µM.

Regarding `Cc1cncc(NC(=O)N2CCOc3c(C)cc(-c4cccc(C(F)(F)F)c4)nc32)c1` [Compound 670], on SIRT1, the Emax is more than 200% and the EC1.5 result is reported as “A (EC1.5<1.0 μM)”. The compound further had an IC50 with TNF not below 20 µM.

In the case of `Cc1cc(NC(=O)N2CCOc3ccc(-c4cccc(N(C)C)c4)nc32)cc(C)n1` [Compound 619], on SIRT1, the Emax is more than 200% and the EC1.5 result is listed as “A (EC1.5<1.0 μM)”. The IC50 in the assay with TNF was less than 20 µM.

For `Cc1cc(NC(=O)N2CCCOc3ccc(-c4cccc(N5CCCC5)c4)nc32)ccn1` [Compound 614], at SIRT1, the Emax was more than 200% and the EC1.5 result is “A (EC1.5<1.0 μM)”. In the assay with TNF, this compound had an IC50 not below 20 µM.

As to `Cc1cc(-c2cccc(Cl)c2)nc2c1OCCN2C(=O)Nc1ccnc(N2CCC2)c1` [Compound 692], on SIRT1, the Emax is more than 200% and the EC1.5 result was “A (EC1.5<1.0 μM)”. The IC50 in the assay with TNF was not below 20 µM.

`Cc1cncc(NC(=O)N2CCCc3ccc(-c4cccc(C(F)(F)F)c4)nc32)c1` [Compound 585, N-(5-methylpyridin-3-yl)-7-(3-(trifluoromethyl)phenyl)-3,4-dihydro-1,8-naphthyridine-1(2H)-carboxamide]: on SIRT1, the Emax is more than 200% and the EC1.5 entry is “A (EC1.5<1.0 μM)”. The IC50 in the assay with TNF was less than 20 µM.

`CN1CCN(C(=O)Nc2cccc(CN3CCOCC3)n2)c2nc(-c3cccc(C(F)(F)F)c3)ccc21` [Compound 539]: on SIRT1, the Emax was more than 200% and the EC1.5 result is “A (EC1.5<1.0 μM)”. Also, the IC50 in the assay with TNF is less than 20 µM.

As for `Cc1cc(-c2cccc(C(F)(F)F)c2)nc2c1OCCN2C(=O)Nc1cccc(OCC(O)CO)n1` (stereo not drawn) [Compound 682], on SIRT1, the Emax was more than 200% and the EC1.5 entry was “A (EC1.5<1.0 μM)”. Moreover, the IC50 in the assay on TNF is less than 20 µM.

Consider `Cc1cncc(NC(=O)N2CCCc3ccc(-c4cccc(F)c4)nc32)c1` [Compound 590], for which, on SIRT1, the Emax is more than 200% and the EC1.5 result is recorded as “A (EC1.5<1.0 μM)”. Also, the IC50 in the assay on TNF was less than 20 µM.

Regarding `Cc1cc(NC(=O)N2CCCc3ccc(-c4cccc(F)c4)nc32)cc(C)n1` [Compound 595], at SIRT1, the Emax is more than 200% and the EC1.5 entry is reported as “A (EC1.5<1.0 μM)”. In the assay on TNF, this compound registered an IC50 of less than 20 µM.

Consider `Cc1cc(NC(=O)N2CCOc3ccc(-c4cccc(C(F)(F)F)c4)nc32)cc(C)n1` [Compound 556], for which, at SIRT1, the Emax was more than 200% and the EC1.5 entry was “A (EC1.5<1.0 μM)”. Further, the IC50 in the assay on TNF is less than 20 µM.

Take `O=C(Nc1ccncc1F)N1CCOc2ccc(-c3cccc(C(F)(F)F)c3)nc21` [Compound 549]: on SIRT1, the Emax is more than 200% and the EC1.5 result is listed as “A (EC1.5<1.0 μM)”. The compound also had an IC50 in the assay with TNF not below 20 µM.

With `O=C(Nc1ccncn1)N1CCOc2ccc(-c3cccc(C(F)(F)F)c3)nc21` [Compound 503], at SIRT1, the Emax is more than 200% and the EC1.5 result is given as “A (EC1.5<1.0 μM)”. This compound also gave an IC50 in the assay on TNF not below 20 µM.

On to `Cc1cc(NC(=O)N2CCCOc3ccc(-c4cccc(Cl)c4)nc32)cc(C)n1` [Compound 626], for which, at SIRT1, the Emax was more than 200% and the EC1.5 result is given as “A (EC1.5<1.0 μM)”. In addition, the IC50 with TNF is less than 20 µM.

For `Cc1csc(NC(=O)N2CCN(C)c3ccc(-c4cccc(C(F)(F)F)c4)nc32)n1` [Compound 533], on SIRT1, the Emax is more than 200% and the EC1.5 result is reported as “A (EC1.5<1.0 μM)”. In addition, the IC50 in the assay on TNF is not below 20 µM.

The term IC50 denotes the concentration at which inhibition is half-maximal. Higher therefore signals weaker potency.
